Assay results: patent US20260078130A1, “NAMPT MODULATORS, PREPARATIONS, AND USES THEREOF” (SIRONAX LTD., priority 2022, published 2026)

What was measured:
[1] = molecular target: T1, human enzyme NAMPT (full length) (Homo sapiens, UniProt P43490); assay: NMN fluorescence biochemical assay (stimulation of NMN synthesis by NAMPT); details: for EC50: NMN synthesis by purified human NAMPT (100 nM), concentration giving half-maximal activation, read-out: Enzymatic EC50; for Enzymatic Emax: fold change of maximal activation compared to DMSO
T1 construct: human enzyme NAMPT (full length)
T1 sequence (P43490 whole entry): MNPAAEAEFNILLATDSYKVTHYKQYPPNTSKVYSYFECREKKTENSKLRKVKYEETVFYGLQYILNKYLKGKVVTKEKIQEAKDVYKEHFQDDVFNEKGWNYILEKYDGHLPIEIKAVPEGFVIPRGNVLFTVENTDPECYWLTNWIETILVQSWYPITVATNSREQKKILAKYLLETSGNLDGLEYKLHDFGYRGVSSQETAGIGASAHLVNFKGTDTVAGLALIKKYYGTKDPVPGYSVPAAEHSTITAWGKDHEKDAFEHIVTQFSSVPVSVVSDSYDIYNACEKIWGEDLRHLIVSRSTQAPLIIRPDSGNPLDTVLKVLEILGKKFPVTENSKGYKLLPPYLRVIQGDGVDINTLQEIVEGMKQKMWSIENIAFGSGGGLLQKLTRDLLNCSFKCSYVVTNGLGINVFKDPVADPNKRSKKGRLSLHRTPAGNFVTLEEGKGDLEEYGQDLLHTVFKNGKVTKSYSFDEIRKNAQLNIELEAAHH
In short: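 Full-length human NAMPT (100 nM) was preincubated 15 min at 37 °C with compound in 50 mM Tris-HCl pH 7.5, 10 mM MgCl2, 2 mM DTT, then reacted 1 h at 37 °C with 50 μM NAM, 100 μM PRPP, 4 mM ATP (stated solution concentrations). NMN was derivatised with acetophenone/KOH then formic acid and read at Ex/Em 382/445 nm; EC50 and Emax (fold over DMSO) reported.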

[2] = test system: endogenous NAMPT in U2OS cells; assay: Cellular NAD+ modulation assay (NAD/NADH-Glo, U2OS cells); assay type: cell-based; details: Homo sapiens, 24 hours incubation with compound; for maximal fold induction: read-out: Cellular Emax
In short: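 NAD/NADH-Glo luminescence quantified NAD+ after acid treatment (60 °C, 15 min) and neutralization of DTAB lysates. Beforehand, U2OS cells seeded 16 h earlier received compound concentration series for 24 h at 37 °C. Values given as half-maximal activation concentration (EC50) and maximal fold change versus DMSO (Emax).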

SMILES | EC50 [1] | Enzymatic Emax [1] | EC50 [2] | maximal fold induction [2]
O=C1c2ccccc2C(Cc2cnccc2Cl)N1Cc1ccc2[nH]c(=O)oc2c1 (centres unmarked) [Compound 175, 6-((1-((4-chloropyridin-3-yl)methyl)-3-oxoisoindolin-2-yl)methyl)benzo[d]oxazol-2(3H)-one] | < 500 nM | B (3≥B>2) | < 500 nM | > 1.5
Cc1cccnc1CC1c2ccccc2C(=O)N1Cc1ccc2[nH]c(=O)oc2c1 (centres unmarked) [Compound 176, 6-((1-((3-methylpyridin-2-yl)methyl)-3-oxoisoindolin-2-yl)methyl)benzo[d]oxazol-2(3H)-one] | < 500 nM | A (A>3) | 500 to 5000 nM | > 1.5
Cc1cccnc1C[C@H]1c2ccccc2C(=O)N1Cc1ccc2[nH]c(=O)oc2c1 [Compound 178, (S)-6-((1-((3-methylpyridin-2-yl)methyl)-3-oxoisoindolin-2-yl)methyl)benzo[d]oxazol-2(3H)-one] | < 500 nM | A (A>3) | < 500 nM | > 1.5
CCc1cccnc1CC1c2ccccc2C(=O)N1Cc1ccc2[nH]c(=O)oc2c1 (centres unmarked) [Compound 182, 6-((1-((3-ethylpyridin-2-yl)methyl)-3-oxoisoindolin-2-yl)methyl)benzo[d]oxazol-2(3H)-one] | 500 to 5000 nM | A (A>3) | 500 to 5000 nM | > 1.5
N#Cc1ccccc1CC1c2ccccc2C(=O)N1Cc1ccc2[nH]nnc2c1 (centres unmarked) [Compound 189, 2-((2-((1H-benzo[d][1,2,3]triazol-5-yl)methyl)-3-oxoisoindolin-1-yl)methyl)benzonitrile] | 500 to 5000 nM | B (3≥B>2) | 500 to 5000 nM | > 1.5
N#Cc1cccc(Cl)c1CC1c2ccccc2C(=O)N1Cc1ccc2[nH]c(=O)oc2c1 (centres unmarked) [Compound 190, 3-chloro-2-((3-oxo-2-((2-oxo-2,3-dihydrobenzo[d]oxazol-6-yl)methyl)isoindolin-1-yl)methyl)benzonitrile] | < 500 nM | B (3≥B>2) | < 500 nM | > 1.5
O=C1c2ccccc2C(Cc2ncccc2C(F)F)N1Cc1ccc2[nH]c(=O)oc2c1 (centres unmarked) [Compound 191, 6-((1-((3-(difluoromethyl)pyridin-2-yl)methyl)-3-oxoisoindolin-2-yl)methyl)benzo[d]oxazol-2(3H)-one] | 500 to 5000 nM | A (A>3) | 500 to 5000 nM | > 1.5
N#Cc1ccccc1CC1c2ccccc2C(=O)N1Cc1ccc(O)c(F)c1 (centres unmarked) [Compound 195, 2-((2-(3-fluoro-4-hydroxybenzyl)-3-oxoisoindolin-1-yl)methyl)benzonitrile] | < 500 nM | B (3≥B>2) | < 500 nM | 1.2 to 1.5
N#Cc1ccccc1CC1c2ccccc2C(=O)N1Cc1cc(F)c(O)c(F)c1 (centres unmarked) [Compound 197, 2-((2-(3,5-difluoro-4-hydroxybenzyl)-3-oxoisoindolin-1-yl)methyl)benzonitrile] | 500 to 5000 nM | B (3≥B>2) | 500 to 5000 nM | > 1.5
N#Cc1ccc(CC2c3ccccc3C(=O)N2Cc2ccc3[nH]c(=O)oc3c2)c(F)c1 (centres unmarked) [Compound 199, 3-fluoro-4-((3-oxo-2-((2-oxo-2,3-dihydrobenzo[d]oxazol-6-yl)methyl)isoindolin-1-yl)methyl)benzonitrile] | < 500 nM | A (A>3) | < 500 nM | > 1.5
N#Cc1cccc(Br)c1CC1c2ccccc2C(=O)N1Cc1ccc2[nH]c(=O)oc2c1 (centres unmarked) [Compound 200, 3-bromo-2-((3-oxo-2-((2-oxo-2,3-dihydrobenzo[d]oxazol-6-yl)methyl)isoindolin-1-yl)methyl)benzonitrile] | < 500 nM | B (3≥B>2) | < 500 nM | > 1.5
N#Cc1ncccc1CC1c2ccccc2C(=O)N1Cc1ccc2[nH]c(=O)oc2c1 (centres unmarked) [Compound 201, 3-((3-oxo-2-((2-oxo-2,3-dihydrobenzo[d]oxazol-6-yl)methyl)isoindolin-1-yl)methyl) picolinonitrile] | 500 to 5000 nM | A (A>3) | < 500 nM | > 1.5
N#Cc1ccc(F)c(CC2c3ccccc3C(=O)N2Cc2ccc3[nH]c(=O)oc3c2)c1 (centres unmarked) [Compound 202, 4-fluoro-3-((3-oxo-2-((2-oxo-2,3-dihydrobenzo[d]oxazol-6-yl)methyl)isoindolin-1-yl)methyl)benzonitrile] | 500 to 5000 nM | A (A>3) | < 500 nM | > 1.5
N#Cc1ccncc1CC1c2ccccc2C(=O)N1Cc1ccc2[nH]c(=O)oc2c1 (centres unmarked) [Compound 203, 3-((3-oxo-2-((2-oxo-2,3-dihydrobenzo[d]oxazol-6-yl)methyl)isoindolin-1-yl)methyl) isonicotinonitrile] | 500 to 5000 nM | A (A>3) | < 500 nM | > 1.5
O=C1c2ccccc2C(Cc2ncccc2Br)N1Cc1ccc2[nH]c(=O)oc2c1 (centres unmarked) [Compound 205, 6-((1-((3-bromopyridin-2-yl)methyl)-3-oxoisoindolin-2-yl)methyl)benzo[d]oxazol-2(3H)-one] | < 500 nM | A (A>3) | < 500 nM | > 1.5
O=C1c2ccc(C3CC3)cc2C(Cc2ncccc2Br)N1Cc1ccc2[nH]c(=O)oc2c1 (centres unmarked) [Compound 209, 6-((3-((3-bromopyridin-2-yl)methyl)-5-cyclopropyl-1-oxoisoindolin-2-yl)methyl)benzo[d]oxazol-2(3H)-one] | < 500 nM | A (A>3) | < 500 nM | > 1.5
O=C1c2ccccc2C(Cc2ccccc2OC(F)F)N1Cc1ccc2[nH]c(=O)oc2c1 (centres unmarked) [Compound 210, 6-((1-(2-(difluoromethoxy)benzyl)-3-oxoisoindolin-2-yl)methyl)benzo[d]oxazol-2(3H)-one] | 500 to 5000 nM | A (A>3) | 500 to 5000 nM | > 1.5
O=C1c2ccccc2C(Cc2nccc(F)c2Br)N1Cc1ccc2[nH]c(=O)oc2c1 (centres unmarked) [Compound 211, 6-((1-((3-bromo-4-fluoropyridin-2-yl)methyl)-3-oxoisoindolin-2-yl)methyl)benzo[d]oxazol-2(3H)-one] | < 500 nM | A (A>3) | < 500 nM | > 1.5
N#Cc1nccc(Cl)c1CC1c2ccccc2C(=O)N1Cc1ccc2[nH]c(=O)oc2c1 (centres unmarked) [Compound 212, 4-chloro-3-((3-oxo-2-((2-oxo-2,3-dihydrobenzo[d]oxazol-6-yl)methyl)isoindolin-1-yl)methyl)picolinonitrile] | < 500 nM | A (A>3) | < 500 nM | > 1.5
O=C1c2ccccc2C(Cc2ncccc2F)N1Cc1ccc2[nH]c(=O)oc2c1 (centres unmarked) [Compound 214, 6-((1-((3-fluoropyridin-2-yl)methyl)-3-oxoisoindolin-2-yl)methyl)benzo[d]oxazol-2(3H)-one] | 500 to 5000 nM | A (A>3) | < 500 nM | > 1.5
